Our source for the solubility values is patent US20250064729A1, “METHODS AND FORMULATIONS FOR IMPROVING THE PHARMACOKINETIC PROPERTIES OF NUTRACEUTICAL COMPOUNDS” (UNIVERSITY OF SOUTH CAROLINA, priority 2023, published 2025).

The data set in a line: Solubility assessment under saturation conditions in simulated gastrointestinal media. To be noted: thermodynamic from solid. The method, then:
Biological media (Biorelevant.com, London, UK) were prepared according to the manufacturer's instructions. […] The resulting suspensions were left for 1 h at room temperature under constant magnetic stirring. A 200-μl aliquot of each suspension was taken into an Eppendorf tube and centrifuged at top speed, and 100 μl supernatant was taken for UV spectrometer detection at 434 nm for emodin and 371 nm for quercetin. The concentration was calculated based on standard curves established using pure emodin or quercetin completely dissolved in methanol.

In brackets after ≈: the same amount, converted by molar mass.

For orientation: solubility means the concentration that dissolves in the medium under given conditions. Higher therefore signals a readily soluble substance. In the case of `O=c1c(O)c(-c2ccc(O)c(O)c2)oc2cc(O)cc(O)c12` [Quercetin, 3,3′,4′,5,7-pentahydroxylflavone], the solubility at 1 h runs as follows: (FaSSGF (fasted-state simulated gastric fluid), pH 1.6, fassgf or other biorelevant) 20.8 µg/mL (≈ 68.8 µM); (FaSSIF (fasted-state simulated intestinal fluid), pH 6.5, fassif) 43.4 µg/mL (≈ 144 µM); (FeSSIF (fed-state simulated intestinal fluid), pH 5, fessif) 146 µg/mL (≈ 481 µM).
Turning to `Cc1cc(O)c2c(c1)C(=O)c1cc(O)cc(O)c1C2=O` [Emodin, 1,3,8-trihydroxy-6-methylanthraquinone], the solubility at 1 h by setting is: (pH 1.6, fassgf or other biorelevant) 7.1 µg/mL (≈ 26.3 µM); (pH 6.5, fassif) 27.2 µg/mL (≈ 101 µM).
